Data reported in PMC12412326, “Cloning and Functional Characterization of a Novel Brevinin-1-Type Peptide from Sylvirana guentheri with Anticancer Activity” (Current Issues in Molecular Biology, 2025).
Like-named read-outs stand apart in the source and are kept apart here. Ends that are not written are not given here. Peptide text beside a SMILES is read from it.

How the values were obtained:
Bacillus subtilis = assay type: cell-based
Description: (§1) The antibacterial activity of brevinin-1 E8.13 was evaluated against six bacterial strains, including two Gram-positive species (Staphylococcus aureus and Bacillus subtilis) and four Gram-negative species (Escherichia coli, Acinetobacter baumannii, Klebsiella pneumoniae, and Pseudomonas aeruginosa). All strains were isolated and identified by the Department of Microbiology, Thanh Nhan Hospital (Hanoi, Vietnam), and are currently maintained at the Laboratory of Cell Biotechnology and Bioassay, Institute of Biology, Vietnam Academy of Science and Technology (VAST).
(§2) Each bacterial strain was first cultured overnight in Luria–Bertani (LB) broth. Then, 100 μL of the overnight culture was transferred to 5 mL of fresh LB broth and incubated at 37 °C with shaking until reaching the logarithmic growth phase. Cultures were adjusted to a concentration of 10^6 colony-forming units (CFU)/mL and dispensed into 96-well plates. The peptide was added at final concentrations ranging from 24.8 μM to 0.4 μM. After 24 h of incubation at 37 °C, bacterial growth was quantified by measuring optical density (OD) at 600 nm using a Synergy HT microplate reader (BioTek, Winooski, VT, USA). All concentrations were tested in triplicate.

Staphylococcus aureus = assay type: cell-based; settings: for MIC S. aureus: 24 h
Description: as §1, §2

Escherichia coli = assay type: cell-based
Description: as §1, §2

[1] = Circular dichroism, secondary structure estimated with CDNN 2.1; assay type: physicochemical; settings: 0.3 mg/mL in deionized water, CDNN 2.1, 190–260 nm range
Description: The CD spectrum of the peptide brevinin-1 E8.13 was measured to evaluate its secondary structure. The peptide was dissolved in deionized water at a concentration of 0.3 mg/mL. Measurements were performed using a ChiraScan™ Circular Dichroism Spectrometer (Applied Photophysics, Leatherhead, Surrey, UK) with a quartz cuvette of 1 mm path length. The CD spectra were recorded over a wavelength range of 180–260 nm using the default instrument settings recommended by the manufacturer (scanning speed, integration time, and bandwidth). Each sample was measured three consecutive times, and the solvent-corrected average spectrum was used for analysis. The resulting spectra were processed using the CDNN 2.1 (Circular Dichroism Neural Network) software to estimate the proportions of secondary structural elements, including α-helix, β-sheet, β-turn, and random coil.

[2] = test system: human cancer cell lines (A549, AGS, Jurkat, HCT116, HL60, HepG2); assay type: cell-based
Description: (§3) The cytotoxic effects of brevinin-1 E8.13 were evaluated in six human cancer cell lines: A549 (lung), AGS (stomach), Jurkat (blood), HCT116 (colon), HL60 (blood), and HepG2 (liver). All cell lines were cultured in either DMEM or RPMI-1640 medium supplemented with 10% fetal bovine serum (FBS) and 1% penicillin–streptomycin, under conditions of 5% CO2 at 37 °C. The 3-(4,5-dimethylthiazol-2-yl)-2,5-diphenyltetrazolium bromide (MTT) assay was used to assess cell viability. Cells were seeded at a density of 10^4 cells per well in 96-well plates and incubated at 37 °C. After 72 h of treatment with the peptide, 10 µL of MTT reagent (Merck, Darmstadt, Germany) in PBS, pH 7.0 was added to each well and incubated for 4 h. Following supernatant removal, 100 µL of dimethyl sulfoxide (DMSO, Merck, Germany) was added to dissolve the resulting formazan crystals. Absorbance was measured at 570 nm using a microplate reader. Each experimental condition was performed in triplicate. The cytotoxicity of the peptide was also evaluated in normal human dermal fibroblast cells using the same assay.

HCT116 (colon) cells = assay type: cell-based, human; settings: 72 h
Description: as §3

HepG2 (liver) cells = assay type: cell-based, human; settings: 72 h
Description: as §3

Jurkat (blood) cells = assay type: cell-based, human; settings: 72 h
Description: as §3

A549 (lung) cells = assay type: cell-based, human; settings: 72 h
Description: as §3

HL60 (blood) cells = assay type: cell-based, human; settings: 72 h
Description: as §3

AGS (stomach) cells = assay type: cell-based, human; settings: 72 h
Description: as §3

Pseudomonas aeruginosa = experiment: Antibacterial activity (MIC, broth dilution in 96-well plates); assay type: cell-based; settings: LB broth, 10^6 CFU/mL, 24 h at 37 °C, OD 600 nm, triplicate
Description: as §1, §2

Klebsiella pneumoniae = experiment: as above; assay type: cell-based; settings: LB broth, 10^6 CFU/mL, 24 h at 37 °C, OD 600 nm, triplicate
Description: as §1, §2

Acinetobacter baumannii = experiment: as above; assay type: cell-based; settings: LB broth, 10^6 CFU/mL, 24 h at 37 °C, OD 600 nm, triplicate
Description: as §1, §2

[3] = LB broth, 10^6 CFU/mL, 24 h at 37 °C, OD 600 nm, triplicate

Compound: FAKWAFKWLKK-NH2 [GA-K4AL, reference compound]
- MIC B. subtilis (Bacillus subtilis; 24 h): >41.8 µM
- MIC S. aureus (Staphylococcus aureus): 2.5 µM
- MIC E. coli (Escherichia coli; 24 h): 10.1 µM

Compound: CC[C@H](C)[C@H](NC(=O)[C@H](C)NC(=O)[C@H](C)NC(=O)[C@@H]1CCCN1C(=O)[C@@H](NC(=O)[C@H](CC(C)C)NC(=O)[C@H](CCCCN)NC(=O)[C@H](CO)NC(=O)[C@H](C)NC(=O)[C@@H](NC(=O)[C@H](CCCCN)NC(=O)[C@H](Cc1ccccc1)NC(=O)[C@H](CC(C)C)NC(=O)[C@H](C)NC(=O)CNC(=O)[C@H](CC(C)C)NC(=O)[C@@H](N)Cc1ccccc1)C(C)C)C(C)C)C(=O)N[C@@H](CS)C(=O)N[C@@H](CO)C(=O)N[C@@H](Cc1ccccc1)C(=O)N[C@@H](CO)C(=O)N[C@@H](CCCCN)C(=O)N[C@@H](CCCCN)C(=O)N[C@@H](CS)C(N)=O [Brevinin-1 E8.13] (H-FLGALFKVASKLVPAAICSFSKKC-NH2; N-terminus assumed)
- Antiparallel β-sheet content (CD) [1]: 36.2%
- Random coil content (CD) [1]: 27.74%
- α-helix content (CD) [1]: 11.83%
- β-turn content (CD) [1]: 15.48%
- IC50 ([2]; 72 h): 7.5 to 14.8 µM
- Selectivity Index (SI) toward cancer cells ([2]; SI = IC50 (HDF) or HC50 / IC50 (cancer cells), result in words): moderate selectivity
- IC50 (HCT116 (colon) cells): 9.2 µM
- IC50 (HepG2 (liver) cells): 11.7 µM
- IC50 (Jurkat (blood) cells): 12.9 µM
- IC50 (A549 (lung) cells): 31.6 µM
- IC50 (HL60 (blood) cells): 14.8 µM
- IC50 (AGS (stomach) cells): 7.5 µM
- MIC P. aeruginosa (Pseudomonas aeruginosa): > 24.8 µM
- MIC K. pneumonia (Klebsiella pneumoniae): > 24.8 µM
- MIC A. baumanii (Acinetobacter baumannii): > 24.8 µM
- MIC B. subtilis (Bacillus subtilis; [3]): > 24.8 µM
- MIC S. aureus (Staphylococcus aureus): 1.5 µM
- Selectivity Index (SI) toward Staphylococcus aureus over normal cells (Staphylococcus aureus; SI = IC50 (HDF) or HC50 / MIC, result in words): high selectivity (SI > 10 reflects high selectivity)
- MIC E. coli (Escherichia coli; [3]): > 24.8 µM
